Reference: patent US11000033B2, “Ketone or oxime compound, and herbicide” (NISSAN CHEMICAL CORPORATION, priority 2014, dated 2021)

How the values were obtained:
[1] = test system: Cyperus difformis; experiment: Test Example 3: herbicidal effect by foliage application, Wagner pot (symbol E); type: in vivo; details: application herbicide amount 320 g/ha
How it was run: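 Plants sown in submerged alluvial soil (water depth 0.1–0.5 cm) in a 25–30 °C greenhouse and grown 14 days. An emulsion of the compound diluted in water to a set herbicide amount was sprayed uniformly on foliage. Effect on each plant scored 3 weeks after application.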

[2] = test system: Veronica persica; experiment: Test Example 4: herbicidal effect by soil treatment (symbol R); type: in vivo
How it was run: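 Seeds were sown in sterilized diluvial soil, covered with about 1.5 cm of soil, and the soil surface was sprayed with a water-diluted emulsion of the compound at a predetermined rate. Plants grew in a greenhouse at 25° C. to 30° C.; effects were scored visually 3 weeks after application.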

[3] = application herbicide amount 320 g/ha

CON=C(C)CC1CC(O)=C(c2c(C)cc(-c3ccccc3)cc2C)C1=O (stereo not drawn) [6-015]
melting point: 167 to 169 °C
herbicidal effect on E, grade 0-5 [1]: 5 (Herbicidal ratio of 90% or more (almost completely withered))

CON=C(C)CC1CC(O)=C(c2c(C)cc(OCC(F)(F)F)cc2C)C1=O (stereo not drawn) [6-049]
melting point: 165 to 172 °C
herbicidal effect on E, grade 0-5 [1]: 5 (Herbicidal ratio of 90% or more (almost completely withered))
R: Veronica persica, herbicidal effect grade [2, 3]: 4 (Herbicidal ratio of 70% or higher and lower than 90%)

CON=C(C)CC1CC(OC(=O)N2CCN(C)CC2)=C(c2c(C)cc(C)cc2C)C1=O (stereo not drawn) [1-152]
herbicidal effect on E, grade 0-5 [1]: 5 (Herbicidal ratio of 90% or more (almost completely withered))
R: Veronica persica, herbicidal effect grade ([2]; 320 g/ha): 0 (Herbicidal ratio of 5% or lower (almost no effect))

Cc1cc(C)c(C2=C(O)CC(CC(=O)C(C)(C)C)C2=O)c(C)c1 (stereo not drawn) [2-022]
herbicidal effect on E, grade 0-5 [1]: 2 (Herbicidal ratio of 20% or higher and lower than 40%)
R: Veronica persica, herbicidal effect grade [2, 3]: 0 (Herbicidal ratio of 5% or lower (almost no effect))

CCc1cc(Br)cc(C)c1C1=C(O)CC(CC(C)=NOC)C1=O (stereo not drawn) [6-001]
melting point: 151 to 153 °C
herbicidal effect on E, grade 0-5 [1]: 0 (Herbicidal ratio of 5% or lower (almost no effect))

CON=C(C)CC1CC(O)=C(c2c(C)cc(C(C)=O)cc2C)C1=O (stereo not drawn) [6-026]
herbicidal effect on E, grade 0-5 [1]: 5 (Herbicidal ratio of 90% or more (almost completely withered))
R: Veronica persica, herbicidal effect grade [2, 3]: 0 (Herbicidal ratio of 5% or lower (almost no effect))

CCc1cc(C#C[Si](C)(C)C)cc(C)c1C1=C(O)CC(CC(C)=NOC)C1=O (mixture of isomers) [6-008]
herbicidal effect on E, grade 0-5 [1]: 5 (Herbicidal ratio of 90% or more (almost completely withered))
R: Veronica persica, herbicidal effect grade [2, 3]: 0 (Herbicidal ratio of 5% or lower (almost no effect))

Cc1cc(C)c(C2=C(O)CC(CC(=O)CC3CC3)C2=O)c(C)c1 (stereo not drawn) [2-026]
herbicidal effect on E, grade 0-5 [1]: 5 (Herbicidal ratio of 90% or more (almost completely withered))
R: Veronica persica, herbicidal effect grade [2, 3]: 0 (Herbicidal ratio of 5% or lower (almost no effect))

Cc1cc(C)c(C2=C(O)CC(CC(=O)C3CCCCC3)C2=O)c(C)c1 (stereo not drawn) [2-030]
herbicidal effect on E, grade 0-5 [1]: 0 (Herbicidal ratio of 5% or lower (almost no effect))
R: Veronica persica, herbicidal effect grade [2, 3]: 0 (Herbicidal ratio of 5% or lower (almost no effect))

CCC(=O)CC1CC(O)=C(c2c(C)cc(C)cc2C)C1=O (stereo not drawn) [2-006]
herbicidal effect on E, grade 0-5 [1]: 5 (Herbicidal ratio of 90% or more (almost completely withered))
R: Veronica persica, herbicidal effect grade [2, 3]: 0 (Herbicidal ratio of 5% or lower (almost no effect))

Cc1cc(C)c(C2=C(O)CC(CC(=O)c3ccc(F)cc3)C2=O)c(C)c1 (stereo not drawn) [2-032]
herbicidal effect on E, grade 0-5 [1]: 4 (Herbicidal ratio of 70% or higher and lower than 90%)
R: Veronica persica, herbicidal effect grade [2, 3]: 0 (Herbicidal ratio of 5% or lower (almost no effect))

CCC(C)C(=O)CC1CC(O)=C(c2c(C)cc(C)cc2C)C1=O (stereo not drawn) [2-024]
herbicidal effect on E, grade 0-5 [1]: 0 (Herbicidal ratio of 5% or lower (almost no effect))
R: Veronica persica, herbicidal effect grade [2, 3]: 0 (Herbicidal ratio of 5% or lower (almost no effect))

CCC(=O)CCC1CC(OC)=C(c2c(C)cc(C)cc2C)C1=O (stereo not drawn) [5-002]
herbicidal effect on E, grade 0-5 [1]: 0 (Herbicidal ratio of 5% or lower (almost no effect))
R: Veronica persica, herbicidal effect grade [2, 3]: 0 (Herbicidal ratio of 5% or lower (almost no effect))

CCc1cc(C)cc(C)c1C1=C(O)CC(CC(C)=NOC)C1=O (stereo not drawn) [6-007]
melting point: 122 to 125 °C
herbicidal effect on E, grade 0-5 [1]: 5 (Herbicidal ratio of 90% or more (almost completely withered))

CON=C(C)CC1CC(O)=C(c2c(C)cc(-c3ccc(C(F)(F)F)cc3)cc2C)C1=O (mixture of isomers) [6-016]
herbicidal effect on E, grade 0-5 [1]: 1 (Herbicidal ratio of 5% or higher and lower than 20%)
R: Veronica persica, herbicidal effect grade [2, 3]: 0 (Herbicidal ratio of 5% or lower (almost no effect))

Cc1cc(C)c(C2=C(O)CC(CC(=O)C3CCCC3)C2=O)c(C)c1 (stereo not drawn) [2-028]
herbicidal effect on E, grade 0-5 [1]: 4 (Herbicidal ratio of 70% or higher and lower than 90%)
R: Veronica persica, herbicidal effect grade [2, 3]: 0 (Herbicidal ratio of 5% or lower (almost no effect))

CON=C(C)CC1CC(OC(=O)c2ccccc2)=C(c2c(C)cc(C)cc2C)C1=O (stereo not drawn) [1-010]
herbicidal effect on E, grade 0-5 [1]: 5 (Herbicidal ratio of 90% or more (almost completely withered))
R (Veronica persica) herbicidal effect grade [2, 3]: 4 (Herbicidal ratio of 70% or higher and lower than 90%)

CCOC(=O)C(C(=O)c1ccccn1)C1CC(O)=C(c2c(C)cc(C)cc2C)C1=O (stereo not drawn) [2-013]
herbicidal effect on E, grade 0-5 [1]: 0 (Herbicidal ratio of 5% or lower (almost no effect))
R: Veronica persica, herbicidal effect grade [2, 3]: 0 (Herbicidal ratio of 5% or lower (almost no effect))

CON=C(C)CC1CC(OC(=O)N(C)c2ccccc2)=C(c2c(C)cc(C)cc2C)C1=O (stereo not drawn) [1-159]
herbicidal effect on E, grade 0-5 [1]: 4 (Herbicidal ratio of 70% or higher and lower than 90%)
R: Veronica persica, herbicidal effect grade ([2]; 320 g/ha): 0 (Herbicidal ratio of 5% or lower (almost no effect))

COC(=O)C(C(=O)C1CC1)C1CC(O)=C(c2c(C)cc(C)cc2C)C1=O (stereo not drawn) [2-014]
herbicidal effect on E, grade 0-5 [1]: 5 (Herbicidal ratio of 90% or more (almost completely withered))
R: Veronica persica, herbicidal effect grade [2, 3]: 0 (Herbicidal ratio of 5% or lower (almost no effect))

C=CC(=O)CC1CC(O)=C(c2c(C)cc(C)cc2C)C1=O (stereo not drawn) [2-031]
herbicidal effect on E, grade 0-5 [1]: 5 (Herbicidal ratio of 90% or more (almost completely withered))
R: Veronica persica, herbicidal effect grade [2, 3]: 0 (Herbicidal ratio of 5% or lower (almost no effect))

CON=C(C)CC1CC(O)=C(c2c(C)cc(C)cc2OC)C1=O (stereo not drawn) [6-037, 3-hydroxy-2-(2-methoxy-4,6-dimethylphenyl)-5-{2-(methoxyimino)propyl}cyclopent-2-enone]
herbicidal effect on E, grade 0-5 [1]: 5 (Herbicidal ratio of 90% or more (almost completely withered))
R: Veronica persica, herbicidal effect grade [2, 3]: 1 (Herbicidal ratio of 5% or higher and lower than 20%)

CON=C(C)CC1CC(O)=C(c2c(C)cc(-c3ccc(C)cc3)cc2C)C1=O (mixture of isomers) [6-018]
herbicidal effect on E, grade 0-5 [1]: 5 (Herbicidal ratio of 90% or more (almost completely withered))
R: Veronica persica, herbicidal effect grade [2, 3]: 0 (Herbicidal ratio of 5% or lower (almost no effect))

CON=C(C)CC1CC(O)=C(c2c(C)cc(-c3ccc(Cl)nc3)cc2C)C1=O (mixture of isomers) [6-035]
herbicidal effect on E, grade 0-5 [1]: 5 (Herbicidal ratio of 90% or more (almost completely withered))
R: Veronica persica, herbicidal effect grade [2, 3]: 3 (Herbicidal ratio of 40% or higher and lower than 70%)

CON=C(C)CC1CC(O)=C(c2c(C)cc(Br)cc2C)C1=O (stereo not drawn) [6-003]
melting point: 164 to 166 °C
herbicidal effect on E, grade 0-5 [1]: 5 (Herbicidal ratio of 90% or more (almost completely withered))

CON=C(C)CC1CC(O)=C(c2c(C)cc(-c3ccc(OC)cc3)cc2C)C1=O (mixture of isomers) [6-017]
herbicidal effect on E, grade 0-5 [1]: 4 (Herbicidal ratio of 70% or higher and lower than 90%)
R: Veronica persica, herbicidal effect grade [2, 3]: 0 (Herbicidal ratio of 5% or lower (almost no effect))

CON=C(C)CC1CC(OC(=O)c2ccc(C(F)(F)F)cc2)=C(c2c(C)cc(C)cc2C)C1=O (stereo not drawn) [1-149]
herbicidal effect on E, grade 0-5 [1]: 5 (Herbicidal ratio of 90% or more (almost completely withered))
R: Veronica persica, herbicidal effect grade ([2]; 320 g/ha): 0 (Herbicidal ratio of 5% or lower (almost no effect))

CON=C(C)CC1CC(O)=C(c2c(C)cc(-c3ccc(Cl)cc3)cc2C)C1=O (mixture of isomers) [6-029]
herbicidal effect on E, grade 0-5 [1]: 5 (Herbicidal ratio of 90% or more (almost completely withered))
R: Veronica persica, herbicidal effect grade [2, 3]: 4 (Herbicidal ratio of 70% or higher and lower than 90%)

C=Cc1cc(C)c(C2=C(O)CC(CC(C)=NOC)C2=O)c(C)c1 (mixture of isomers) [6-031]
herbicidal effect on E, grade 0-5 [1]: 2 (Herbicidal ratio of 20% or higher and lower than 40%)
R: Veronica persica, herbicidal effect grade [2, 3]: 0 (Herbicidal ratio of 5% or lower (almost no effect))

CCOC(=O)C(C(=O)Cc1ccccc1)C1CC(O)=C(c2c(C)cc(C)cc2C)C1=O (stereo not drawn) [2-011]
herbicidal effect on E, grade 0-5 [1]: 0 (Herbicidal ratio of 5% or lower (almost no effect))
R: Veronica persica, herbicidal effect grade [2, 3]: 0 (Herbicidal ratio of 5% or lower (almost no effect))

CCc1cc(Br)cc(C)c1C1=C(O)CC(C(C(=O)OC)C(C)=NOC)C1=O (stereo not drawn) [6-002]
melting point: 184 to 188 °C
herbicidal effect on E, grade 0-5 [1]: 0 (Herbicidal ratio of 5% or lower (almost no effect))

CCOC(=O)C(C(=O)c1ccccc1)C1CC(O)=C(c2c(C)cc(C)cc2C)C1=O (stereo not drawn) [2-008]
herbicidal effect on E, grade 0-5 [1]: 0 (Herbicidal ratio of 5% or lower (almost no effect))
R: Veronica persica, herbicidal effect grade [2, 3]: 0 (Herbicidal ratio of 5% or lower (almost no effect))

CON=C(C)CC1CC(O)=C(c2c(C)cc(C(=O)OC)cc2C)C1=O (stereo not drawn) [6-023]
herbicidal effect on E, grade 0-5 [1]: 4 (Herbicidal ratio of 70% or higher and lower than 90%)
R: Veronica persica, herbicidal effect grade [2, 3]: 0 (Herbicidal ratio of 5% or lower (almost no effect))

CCCC(=O)CC1CC(O)=C(c2c(C)cc(C)cc2C)C1=O (stereo not drawn) [2-021]
herbicidal effect on E, grade 0-5 [1]: 3 (Herbicidal ratio of 40% or higher and lower than 70%)
R: Veronica persica, herbicidal effect grade [2, 3]: 0 (Herbicidal ratio of 5% or lower (almost no effect))
